According to US11912675B1, “N'-(2-(5-(4-chlorophenyl)-1,3,4-oxadiazol-2-ylthio)acetoxy)-3,4-dimethoxybenzimidamide as an antimicrobial compound” (KING FAISAL UNIVERSITY, priority 2023, dated 2024):

Assays:
Format in all cases: cell-based
[1] = tested on: Bacillus cereus; assay: agar plate disc-diffusion, antibacterial, Bacillus cereus; details: nutrient agar, 37° C., 48 h, DMSO control zone subtracted
Procedure: (§1) The agar plate disc-diffusion method was applied. […] The discs were then placed onto the surface of agar plates (nutrient agar for bacteria and Sabouraud's dextrose agar for fungi) seeded with the test organism. Each plate contained 15 mL of the agar medium, previously seeded with 0.2 mL of the broth culture of each organism pregrown for 18 h. The plates were incubated at 37° C. for 48 h, and 72 h for fungi. The inhibition zones was measured in mm. Discs impregnated with DMSO were used as a control, and its inhibition zone was subtracted from the tested compound actual inhibition zone.
(§2) The antibacterial activity was screened against gram positive bacteria namely Bacillus cereus and Staphylococcus aureus and gram-negative bacterial strains namely Pseudomonas aeruginosa and Escherichia coli, while the antifungal activity was screened against Aspergillus flavus and Chrysosporium keratinophilum as shown in Table 1 and 2.

[2] = tested on: Staphylococcus aureus; assay: agar plate disc-diffusion, antibacterial, Staphylococcus aureus; details: nutrient agar, 37° C., 48 h, DMSO control zone subtracted
Procedure: as §1, §2

[3] = tested on: Pseudomonas aeruginosa; assay: agar plate disc-diffusion, antibacterial, Pseudomonas aeruginosa; details: nutrient agar, 37° C., 48 h, DMSO control zone subtracted
Procedure: as §1, §2

[4] = tested on: Escherichia coli; assay: agar plate disc-diffusion, antibacterial, Escherichia coli; details: nutrient agar, 37° C., 48 h, DMSO control zone subtracted
Procedure: The agar plate disc-diffusion method was applied. Sterilized filter papers (6 mm in diameter) were wetted with 10 μL of a solution of N′-(2-(5-(4-chlorophenyl)-1,3,4-oxadiazol-2-ylthio)acetoxy)-3,4-dimethoxybenzimidamide (3) to be tested, containing 10 mg/mL in DMSO, and the discs were allowed to air dry. The discs were then placed onto the surface of agar plates (nutrient agar for bacteria and Sabouraud's dextrose agar for fungi) seeded with the test organism. Each plate contained 15 mL of the agar medium, previously seeded with 0.2 mL of the broth culture of each organism pregrown for 18 h. The plates were incubated at 37° C. for 48 h, and 72 h for fungi. The inhibition zones was measured in mm. Discs impregnated with DMSO were used as a control, and its inhibition zone was subtracted from the tested compound actual inhibition zone.
as §2

[5] = tested on: Aspergillus flavus; assay: agar plate disc-diffusion, antifungal, Aspergillus flavus; details: Sabouraud's dextrose agar, 72 h, DMSO control zone subtracted
Procedure: as §1, §2

[6] = tested on: Chrysosporium keratinophilum; assay: agar plate disc-diffusion, antifungal, Chrysosporium keratinophilum; details: Sabouraud's dextrose agar, 72 h, DMSO control zone subtracted
Procedure: as §1, §2

[7] = B = concentration of comp. = 30,000 μL
[8] = C = concentration of comp. = 50,000 μL
[9] = A = concentration of comp. = 10,000 μg/mL
[10] = A = concentration of comp. = 10,000 μL

COc1ccc(/C(N)=N/OC(=O)CSc2nnc(-c3ccc(Cl)cc3)o2)cc1OC [compound 3, N′-(2-(5-(4-chlorophenyl)-1,3,4-oxadiazol-2-ylthio)acetoxy)-3,4-dimethoxybenzimidamide]
inhibition zone, Bacillus Cereus, A ([1]; A =): 27 mm
inhibition zone, Bacillus Cereus, B [1, 7]: 30 mm
inhibition zone, Bacillus Cereus, C [1, 8]: 40 mm
inhibition zone, Staphylococcus aureus, A [2, 9]: 17 mm
inhibition zone, Staphylococcus aureus, B [2, 7]: 22 mm
inhibition zone, Staphylococcus aureus, C [2, 8]: 37 mm
inhibition zone, Pseudomonas aeruginosa, A [3, 10]: 25 mm
inhibition zone, Pseudomonas aeruginosa, B [3, 7]: 29 mm
inhibition zone, Pseudomonas aeruginosa, C [3, 8]: 41 mm
inhibition zone, Escherichia coli, A [4, 9]: 28 mm
inhibition zone, Escherichia coli, B [4, 7]: 31 mm
inhibition zone, Escherichia coli, C [4, 8]: 48 mm
inhibition zone, Aspergillus flavus, A [5, 10]: 22 mm
inhibition zone, Aspergillus flavus, B [5, 7]: 26 mm
inhibition zone, Aspergillus flavus, C [5, 8]: 37 mm
inhibition zone, Chrysosporium keratinophilum, A ([6]; A =): 26 mm
inhibition zone, Chrysosporium keratinophilum, B [6, 7]: 27 mm
inhibition zone, Chrysosporium keratinophilum, C [6, 8]: 40 mm
